Assay results taken from PMC8592027, “Structure-Guided Design of D-Galactal Derivatives with High Affinity and Selectivity for the Galectin-8 N-Terminal Domain” (ACS Medicinal Chemistry Letters, 2021).

Assays:
[1] = biological target: T1, galectin-9C (C-terminal domain) (Homo sapiens, UniProt O00182); experiment: Competitive fluorescence polarization assay, galectin-9C; type: binding; settings: mean ± SEM of n = 4–8
T1 construct: galectins (N = N-terminal domain, C = C-terminal domain); made in house
T1 sequence (O00182 227-355 limits assumed): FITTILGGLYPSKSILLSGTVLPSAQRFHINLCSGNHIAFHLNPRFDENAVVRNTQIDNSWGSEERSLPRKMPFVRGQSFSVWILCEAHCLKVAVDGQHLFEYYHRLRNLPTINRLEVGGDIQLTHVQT
Procedure: (§1) 1. Competitive fluorescence polarization experiments:
(§2) Human galectins -1, -3, -4N, -4C, -7, -8N, -9N, and -9C were expressed and purified as previously described 30,41. Fluorescence polarisation experiments were performed using the PHERAstar FS plat e reader (software version 2.10 R3), and the fluorescence anisotropy of fluorescein tagged probes was measured by excitation at 485 nm and emission at 520 nm. The specific conditions for galectins -1, -3, -4N, -4C, -7, -8N, -9N, and -9C were kept as report ed30,41,42. The synthesised compounds were dissolved in pure DMSO at 20 mM concentration and diluted in PBS to 3-6 different concentrations, and each concentration was tested in duplicate. The highest inhibitor concentrations tested were 1.5 mM. The

galectin-2 = biological target: T2, galectin-2 (Homo sapiens, UniProt P05162); experiment: Competitive fluorescence polarization assay, galectin-2; type: binding; settings: mean ± SEM of n = 4–8
T2 sequence (P05162 1-132): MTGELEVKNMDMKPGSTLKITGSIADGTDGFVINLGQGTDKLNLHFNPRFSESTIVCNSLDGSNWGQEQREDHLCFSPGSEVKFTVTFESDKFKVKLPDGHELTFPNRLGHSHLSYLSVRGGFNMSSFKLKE

galectin-3 = biological target: T3, galectin-3 (Homo sapiens, UniProt P17931); experiment: Competitive fluorescence polarization assay, galectin-3; type: binding; settings: mean ± SEM of n = 4–8
T3 construct: made in house
T3 sequence (P17931 whole entry): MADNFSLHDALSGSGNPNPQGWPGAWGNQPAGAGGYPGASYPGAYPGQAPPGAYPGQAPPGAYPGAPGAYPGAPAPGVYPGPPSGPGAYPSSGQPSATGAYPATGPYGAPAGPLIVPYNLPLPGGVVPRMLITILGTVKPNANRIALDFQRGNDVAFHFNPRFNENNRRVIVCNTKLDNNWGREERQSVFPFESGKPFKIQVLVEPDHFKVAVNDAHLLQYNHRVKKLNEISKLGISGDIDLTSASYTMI
Procedure: as §1, §2

galectin-1 = biological target: T4, galectin-1 (Homo sapiens, UniProt P09382); experiment: Competitive fluorescence polarization assay, galectin-1; type: binding; settings: mean ± SEM of n = 4–8
T4 construct: made in house
T4 sequence (P09382 whole entry): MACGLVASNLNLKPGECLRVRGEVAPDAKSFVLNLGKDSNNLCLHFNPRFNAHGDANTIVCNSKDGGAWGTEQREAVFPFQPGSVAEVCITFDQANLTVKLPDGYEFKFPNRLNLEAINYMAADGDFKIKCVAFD
Procedure: as §1, §2

[2] = test system: IL-6 secretion from MDA-MB-231 cells; experiment: Multiplexed cytokine assay, IL-6 secretion; type: cell-based, human; settings: 24 hours, vs untreated cells
Procedure: (§3) Figure 5 Effect of compounds 1 and 6a on the secretion of IL-6 and IL-8 expressed in pg/mL. The effects were measured after incubating the cells with the compounds at 10 and 100 μM. Compounds 1 and 6a reduce the secretion of IL-6 and IL-8 in a dose-dependent manner at 100 and 10 μM. Results shown are means ± SEM of three independent experiments. ns, not significant (p > 0.05); *p < 0.05 versus untreated controls.
(§4) Metabolic activity assay: […]
(§5) Briefly, the cells were treated with the selected compounds in 0.1% dimethyl sulfoxide (DMSO; vehicle), 0.1% DMSO (control vehicle), or medium (control) and seeded at a cell density of 5,500 cells/well (MDA-MB-231 cells) or 4 x 10^4 cells/well (K562 cells), 7000 cells/well (HepG2 cells) or 1 x 10^5 cells/well (human PBMCs) in duplicates (MDA-MB-231, K562, and […]) or triplicates for HepG2 cells (100 µL), in sterile 96-well plates. For the MDA-MB-231 and HepG2, the cells were left to adhere overnight before adding the compounds. The plates were then incubated for 24 hours (48 hours for HepG2), after which 15 µL of MTS reagent was added to each well. […]
(§6) HTX Multi-Mode; BioTek Instruments, Inc., VT, USA).
(§7) Multiplexed cytokine assay:
(§8) MDA-MB-231 cells were seeded in 96-well flat-bottom plates at a density of 2 x 10^4 cells/well in 100 µL of medium and allowed to adhere for 24 hours at 37 °C and 5% CO2. The medium was then replaced by a fresh medium containing the desired concentrations of compounds 1 and 6a, after which the cells were cells incubated again for 24 hours at 37 °C and 5% CO2. Cell-free supernatants were collected and stored at – 80 °C before the analysis. The cytokines secretion was assessed by BD Cytometric Bead Array Human inflammatory cytokine Kit (content: IL-1, IL-6, IL-8, IL-10, IL-12p). The flow cytometric analyses were performed on an Attune NxT flow cytometer (Thermo Fisher Scientific, Waltham, MA, USA). Standard curves were generated using recombinant cytokines provided in the kit, and the data were analyzed with FlowJo software (Tree Star, Inc., Ashland, OR). The results are expressed in pg/mL. Data are represented as means ± standard deviation (SD) from three representative independent experiments.
(§9) All experiments were performed at least twice, with average values expressed as means ± SD. All data were analyzed with the statistical software GraphPad Prism 8.0 (GraphPad Software, Inc., CA, USA). by one-way ANOVA followed with Dunnett’s multiple compar ison test. Differences were considered non-significant for p > 0.05, and significant (*) for p < 0.05.

[3] = test system: IL-8 secretion from MDA-MB-231 cells; experiment: Multiplexed cytokine assay, IL-8 secretion; type: cell-based, human; settings: 24 hours, vs untreated cells
Procedure: as §3, §4, §5, §6, §7, §8, §9

Kd [1]: > 1500 µM | Kd (galectin-2): 1400 ± 24 µM | Kd (galectin-3): 690 ± 30 µM | Kd (galectin-1): 1300 ± 130 µM
SMILES: Cn1c(CO[C@@H]2C=CO[C@H](CO)[C@@H]2O)nc2ccc(C(=O)O)cc21 [6a]
reduction in IL-6 secretion ([2]; 10 μM, effect not significant): about 15% | reduction of IL-6 secretion ([2]; 100 μM): about 65% | reduction in IL-8 secretion ([3]; 10 μM, effect not significant): ~20% | reduction of IL-8 secretion ([3]; 100 μM): about 55%
